In one data set the test system is C2C12 myoblasts. Description: C2C12 myoblast fusion in the presence of actin inhibitors. The data set is classed as cell-based. The conditions noted are these: C2C12 cells infected with GFP or Myomaker virus, Cytochalasin D 0.3 μM, lantrunculin B 0.1 μM.
The conditions of data set [1]: cited from earlier work.
For data set [2] the following is noted: at 78 weeks, cited from earlier work.
Where [3] appears, read: infantile-onset Pompe disease, compared to untreated historical control population.

Entries after “also recorded” stand apart in the source; their conditions may differ.

Consider 3 compounds from patent US11471509B2, “Compositions and methods relating to myomaker-induced muscle cell fusion” (The Board of Regents of the University of Texas System, priority 2013, dated 2022).

With `C=C1[C@@H](C)[C@H]2[C@H](Cc3ccccc3)NC(=O)[C@]23[C@H](OC(C)=O)/C=C/[C@@](C)(O)C(=O)[C@@H](C)C/C=C/[C@H]3[C@@H]1O` [cytochalasin D], the myoblast fusion entry with C2C12 myoblasts is “completely blocked fusion; also recorded: abolished”.
Regarding `C/C1=C/C(=O)O[C@@H]2C[C@@H](CC[C@H](C)/C=C\CC1)O[C@@](O)([C@@H]1CSC(=O)N1)C2` [lantrunculin B, latrunculin B], the myoblast fusion entry in the data set on C2C12 myoblasts is listed as “completely blocked fusion”; in the data set on C2C12 myoblasts (listed as latrunculin B) it was “abolished”.
Regarding alglucosidase alfa [Myozyme], in data set [1] (setting [3]), the overall survival entry is “clearly prolongs” and the ventilator-free survival result is “clearly prolongs”. Further, in data set [1] (intravenous infusion), the side effects result was “fever, flushing, skin rash, increased heart rate and even shock”. Also, the “increase in percent predicted forced vital capacity” value in data set [2] (P=0.006 vs placebo) was 1.2%. Also, in data set [2] (average, every other week for 18 months, baseline approximately 325 meters, P=0.03 vs placebo), the “increase in distance walked in six minutes” value was “approximately 25 meters”.
